# According to patent US8148373B2, “Compounds” (AstraZeneca AB, priority 2008, dated 2012):
# Experiments:
# [1] = target: T1, human muscarinic acetylcholine M3 receptor (M3-ACh) (Homo sapiens, UniProt P20309); assay: Muscarinic 3 Receptor Binding Assay, % inhibition specific binding at 1 μM; settings: 1 μM compound, % inhibition specific [3H]-NMS binding
# T1 construct: expressed in transfected cells; host or cells: CHO-K1 (Chinese Hamster Ovary) cell membranes
# Summary of the method: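 Competition binding of 0.1 nM [3H]NMS to membranes from CHO-K1 cells expressing human M3, SPA format, with compound at 1 μM in 20 mM HEPES pH 7.4, 5 mM MgCl2, 1% DMSO. Incubated 16 h at room temperature; non-specific binding defined by 1 μM atropine; value is % inhibition of specific binding.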
# [2] = target: T2, Adrenergic β2 (H292 cells) (Homo sapiens, UniProt P07550); assay: Adrenergic β2 Mediated cAMP Production, single concentration 1 μM; assay type: cell-based; settings: percentage of the maximum response generated by 1E-07M formoterol; for activation at 1 µM: NCI-H292, 1 μM compound, read-out: β2 (% effect at 1 μM); for β2 (% effect at 1 μM): 1 μM compound
# T2 construct: endogenous in cells; host or cells: H292 cells
# T2 sequence (P07550 whole entry): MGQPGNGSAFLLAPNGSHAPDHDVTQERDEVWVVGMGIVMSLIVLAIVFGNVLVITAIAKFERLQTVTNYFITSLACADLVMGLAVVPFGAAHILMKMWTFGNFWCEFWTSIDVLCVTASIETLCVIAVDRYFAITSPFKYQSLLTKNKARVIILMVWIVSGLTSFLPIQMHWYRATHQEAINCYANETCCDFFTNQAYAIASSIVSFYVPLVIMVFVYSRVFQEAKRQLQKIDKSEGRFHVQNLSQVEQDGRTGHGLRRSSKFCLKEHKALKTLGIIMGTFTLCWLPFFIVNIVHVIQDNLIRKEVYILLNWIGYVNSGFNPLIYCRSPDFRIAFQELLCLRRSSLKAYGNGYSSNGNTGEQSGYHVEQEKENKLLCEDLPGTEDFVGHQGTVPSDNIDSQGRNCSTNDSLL
# Summary of the method: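 H292 cells were plated overnight, pre-treated with 300 μM rolipram for 10 min, then exposed to compound at 1 μM final (1% DMSO) for 60 min at room temperature. cAMP in the lysates was measured by AlphaScreen against a standard curve and expressed as % of the maximal response to 1E-07M formoterol.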
# T1 sequence (P20309 whole entry): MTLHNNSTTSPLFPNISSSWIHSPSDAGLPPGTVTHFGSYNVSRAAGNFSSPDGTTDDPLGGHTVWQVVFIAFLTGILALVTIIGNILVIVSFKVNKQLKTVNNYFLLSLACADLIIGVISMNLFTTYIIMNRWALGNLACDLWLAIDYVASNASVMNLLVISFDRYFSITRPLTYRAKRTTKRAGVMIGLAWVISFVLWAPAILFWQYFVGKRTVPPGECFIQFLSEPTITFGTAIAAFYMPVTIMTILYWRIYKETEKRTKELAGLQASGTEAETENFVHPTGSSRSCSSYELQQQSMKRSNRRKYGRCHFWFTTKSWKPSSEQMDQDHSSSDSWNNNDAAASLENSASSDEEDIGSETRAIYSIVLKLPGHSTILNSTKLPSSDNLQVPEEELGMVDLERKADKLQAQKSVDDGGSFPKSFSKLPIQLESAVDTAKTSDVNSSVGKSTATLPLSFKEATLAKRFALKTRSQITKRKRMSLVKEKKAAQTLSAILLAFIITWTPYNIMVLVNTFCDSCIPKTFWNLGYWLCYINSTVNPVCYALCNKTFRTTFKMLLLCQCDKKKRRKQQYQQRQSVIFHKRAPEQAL
Structure (SMILES),inhibition at 1 µM [1],activation at 1 µM [2],M3 (% inhibition at 1 μM) ([1]; 1 µM),β2 (% effect at 1 μM) [2],M3 (% inhibition at 1 μM) [1]
"O=C(c1cccc2[nH]ccc12)N1CCOC2(CCN(Cc3cc(F)cc(CCNC[C@H](O)c4ccc(O)c5[nH]c(=O)sc45)c3)CC2)C1 [Example 165, (R)-7-(2-(3-((4-(1H-indole-4-carbonyl)-1-oxa-4,9-diazaspiro[5.5]undecan-9-yl)methyl)-5-fluorophenethylamino)-1-hydroxyethyl)-4-hydroxybenzo[d]thiazol-2(3H)-one]",11%,89%,–,–,–
"Cc1nc(CC(=O)N2CCOC3(CCN(Cc4cc(F)cc(CCNC[C@H](O)c5ccc(O)c6[nH]c(=O)sc56)c4)CC3)C2)cs1 [Example 166, (R)-7-(2-(3-fluoro-5-((4-(2-(2-methylthiazol-4-yl)acetyl)-1-oxa-4,9-diazaspiro[5.5]undecan-9-yl)methyl)phenethylamino)-1-hydroxyethyl)-4-hydroxybenzo[d]thiazol-2(3H)-one]",69%,95%,–,–,–
"Cc1noc(C)c1CC(=O)N1CCOC2(CCN(Cc3cc(F)cc(CCNC[C@H](O)c4ccc(O)c5[nH]c(=O)sc45)c3)CC2)C1 [Example 167, (R)-7-(2-(3-((4-(2-(3,5-dimethylisoxazol-4-yl)acetyl)-1-oxa-4,9-diazaspiro[5.5]undecan-9-yl)methyl)-5-fluorophenethylamino)-1-hydroxyethyl)-4-hydroxybenzo[d]thiazol-2(3H)-one]",8%,100%,–,–,–
"O=C(Cn1ccc2cccc(Cl)c21)N1CCOC2(CCN(Cc3cc(F)cc(CCNC[C@H](O)c4ccc(O)c5[nH]c(=O)sc45)c3)CC2)C1 [Example 168, (R)-7-(2-(3-((4-(2-(7-chloro-1H-indol-1-yl)acetyl)-1-oxa-4,9-diazaspiro[5.5]undecan-9-yl)methyl)-5-fluorophenethylamino)-1-hydroxyethyl)-4-hydroxybenzo[d]thiazol-2(3H)-one]",29%,95%,–,–,–
"O=C(c1ccc(-c2ccccc2)cc1)N1CCOC2(CCN(Cc3cc(F)cc(CCNC[C@H](O)c4ccc(O)c5[nH]c(=O)sc45)c3)CC2)C1 [Example 169, (R)-7-(2-(3-((4-(biphenylcarbonyl)-1-oxa-4,9-diazaspiro[5.5]undecan-9-yl)methyl)-5-fluorophenethylamino)-1-hydroxyethyl)-4-hydroxybenzo[d]thiazol-2(3H)-one]",–,–,−2%,92%,–
"Cc1nn(-c2ccccc2)nc1C(=O)N1CCOC2(CCN(Cc3cc(F)cc(CCNC[C@H](O)c4ccc(O)c5[nH]c(=O)sc45)c3)CC2)C1 [Example 170, (R)-7-(2-(3-fluoro-5-((4-(5-methyl-2-phenyl-2H-1,2,3-triazole-4-carbonyl)-1-oxa-4,9-diazaspiro[5.5]undecan-9-yl)methyl)phenethylamino)-1-hydroxyethyl)-4-hydroxybenzo[d]thiazol-2(3H)-one]",42%,102%,–,–,–
"O=C(c1ccc(-c2ccccc2)cc1)N1CCOC2(CCN(Cc3cc(F)cc(CCNC[C@H](O)c4ccc(O)c5[nH]c(=O)sc45)c3)CC2)C1 [Example 171, (R)-7-(2-(3-((4-(biphenylcarbonyl)-1-oxa-4,9-diazaspiro[5.5]undecan-9-yl)methyl)-5-fluorophenethylamino)-1-hydroxyethyl)-4-hydroxybenzo[d]thiazol-2(3H)-one]",–,–,11%,86%,–
"O=C(c1cnc2ccccc2c1)N1CCOC2(CCN(Cc3cc(F)cc(CCNC[C@H](O)c4ccc(O)c5[nH]c(=O)sc45)c3)CC2)C1 [Example 172, (R)-7-(2-(3-fluoro-5-((4-(quinoline-3-carbonyl)-1-oxa-4,9-diazaspiro[5.5]undecan-9-yl)methyl)phenethylamino)-1-hydroxyethyl)-4-hydroxybenzo[d]thiazol-2(3H)-one]",19%,98%,–,–,–
"O=C(COCCc1ccccc1)N1CCOC2(CCN(Cc3cc(F)cc(CCNC[C@H](O)c4ccc(O)c5[nH]c(=O)sc45)c3)CC2)C1 [Example 174, (R)-7-(2-(3-fluoro-5-((4-(2-phenethoxyacetyl)-1-oxa-4,9-diazaspiro[5.5]undecan-9-yl)methyl)phenethylamino)-1-hydroxyethyl)-4-hydroxybenzo[d]thiazol-2(3H)-one]",41%,89%,–,–,–
"O=C(c1cnc(-c2ccccc2)[nH]1)N1CCOC2(CCN(Cc3cc(F)cc(CCNC[C@H](O)c4ccc(O)c5[nH]c(=O)sc45)c3)CC2)C1 [Example 175, (R)-7-(2-(3-fluoro-5-((4-(2-phenyl-1H-imidazole-5-carbonyl)-1-oxa-4,9-diazaspiro[5.5]undecan-9-yl)methyl)phenethylamino)-1-hydroxyethyl)-4-hydroxybenzo[d]thiazol-2(3H)-one]",3%,94%,–,–,–
"CC(C)(C(=O)N1CCOC2(CCN(Cc3cc(F)cc(CCNC[C@H](O)c4ccc(O)c5[nH]c(=O)sc45)c3)CC2)C1)c1ccccc1 [Example 176, (R)-7-(2-(3-fluoro-5-((4-(2-methyl-2-phenylpropanoyl)-1-oxa-4,9-diazaspiro[5.5]undecan-9-yl)methyl)phenethylamino)-1-hydroxyethyl)-4-hydroxybenzo[d]thiazol-2(3H)-one]",16%,87%,–,–,–
"O=C(Cn1c(C(F)(F)F)nc2ccccc21)N1CCOC2(CCN(Cc3cc(F)cc(CCNC[C@H](O)c4ccc(O)c5[nH]c(=O)sc45)c3)CC2)C1 [Example 177, (R)-7-(2-(3-fluoro-5-((4-(2-(2-(trifluoromethyl)-1H-benzo[d]imidazol-1-yl)acetyl)-1-oxa-4,9-diazaspiro[5.5]undecan-9-yl)methyl)phenethylamino)-1-hydroxyethyl)-4-hydroxybenzo[d]thiazol-2(3H)-one]",1%,78%,–,–,–
"CC(C)c1cc(C(=O)N2CCOC3(CCN(Cc4cc(F)cc(CCNC[C@H](O)c5ccc(O)c6[nH]c(=O)sc56)c4)CC3)C2)no1 [Example 179, (R)-7-(2-(3-fluoro-5-((4-(5-isopropylisoxazole-3-carbonyl)-1-oxa-4,9-diazaspiro[5.5]undecan-9-yl)methyl)phenethylamino)-1-hydroxyethyl)-4-hydroxybenzo[d]thiazol-2(3H)-one]",66%,95%,–,–,–
"Cc1cc(C(=O)N2CCOC3(CCN(Cc4cc(F)cc(CCNC[C@H](O)c5ccc(O)c6[nH]c(=O)sc56)c4)CC3)C2)oc1C [Example 180, (R)-7-(2-(3-((4-(4,5-dimethylfuran-2-carbonyl)-1-oxa-4,9-diazaspiro[5.5]undecan-9-yl)methyl)-5-fluorophenethylamino)-1-hydroxyethyl)-4-hydroxybenzo[d]thiazol-2(3H)-one]",51%,92%,–,–,–
"O=C(COc1ccc(O)cc1)N1CCOC2(CCN(Cc3cc(F)cc(CCNC[C@H](O)c4ccc(O)c5[nH]c(=O)sc45)c3)CC2)C1 [Example 181, (R)-7-(2-(3-fluoro-5-((4-(2-(4-hydroxyphenoxy)acetyl)-1-oxa-4,9-diazaspiro[5.5]undecan-9-yl)methyl)phenethylamino)-1-hydroxyethyl)-4-hydroxybenzol[d]thiazol-2(3H)-one]",–,–,–,86%,10%
"O=C(c1cc2cc(Cl)ccc2o1)N1CCOC2(CCN(Cc3cc(F)cc(CCNC[C@H](O)c4ccc(O)c5[nH]c(=O)sc45)c3)CC2)C1 [Example 182, (R)-7-(2-(3-((4-(5-chlorobenzofuran-2-carbonyl)-1-oxa-4,9-diazaspiro[5.5]undecan-9-yl)methyl)-5-fluorophenethylamino)-1-hydroxyethyl)-4-hydroxybenzo[d]thiazol-2(3H)-one]",16%,88%,–,–,–
"O=C(CCCc1cccs1)N1CCOC2(CCN(CCCCCCCCCNC[C@H](O)c3ccc(O)c4[nH]c(=O)sc34)CC2)C1 [Example 183, (R)-4-hydroxy-7-(1-hydroxy-2-(9-(4-(4-(thiophen-2-yl)butanoyl)-1-oxa-4,9-diazaspiro[5.5]undecan-9-yl)nonylamino)ethyl)benzo[d]thiazol-2(3H)-one]",97%,91%,–,–,–
"Cn1cccc1C(=O)N1CCOC2(CCN(CCCCCCCCCNC[C@H](O)c3ccc(O)c4[nH]c(=O)sc34)CC2)C1 [Example 184, (R)-4-hydroxy-7-(1-hydroxy-2-(9-(4-(1-methyl-1H-pyrrole-2-carbonyl)-1-oxa-4,9-diazaspiro[5.5]undecan-9-yl)nonylamino)ethyl)benzo[d]thiazol-2(3H)-one]",96%,89%,–,–,–
"O=C(Cc1cccs1)N1CCOC2(CCN(CCCCCCCCCNC[C@H](O)c3ccc(O)c4[nH]c(=O)sc34)CC2)C1 [Example 185, (R)-4-hydroxy-7-(1-hydroxy-2-(9-(4-(2-(thiophen-2-yl)acetyl)-1-oxa-4,9-diazaspiro[5.5]undecan-9-yl)nonylamino)ethyl)benzo[d]thiazol-2(3H)-one]",95%,81%,–,–,–
"O=C(Cc1ccccc1)N1CCOC2(CCN(CCCCCCCCCNC[C@H](O)c3ccc(O)c4[nH]c(=O)sc34)CC2)C1 [Example 186, (R)-4-hydroxy-7-(1-hydroxy-2-(9-(4-(2-phenylacetyl)-1-oxa-4,9-diazaspiro[5.5]undecan-9-yl)nonylamino)ethyl)benzo[d]thiazol-2(3H)-one]",95%,86%,–,–,–
